We go through one compound from US20250082611A1, “DOSING REGIMEN FOR AN NLRP3 INHIBITOR IN THE TREATMENT OF OSTEOARTHRITIS” (Novartis AG, priority 2021, published 2025).

Data set [1] concerns IL-1β production in PMA-differentiated THP-1 cells. Description: IL-1β production in PMA-differentiated THP-1 cells stimulated with gramicidin (hTHP-1 assay, 2% fetal bovine serum). In kind it is cell-based. Particulars: Homo sapiens, hTHP-1 assay containing 2% fetal bovine serum. As for the experimental part: THP-1 cells were purchased from the American Type Culture Collection and sub-cultured according to instructions from the supplier. Cells were cultured in complete RPMI 1640 (containing 10% heat inactivated FBS, penicillin (100 units/ml) and streptomycin (100 μg/ml)), and maintained in log phase prior to experimental setup. Prior to the experiment, compounds were dissolved in dimethyl sulfoxide (DMSO) to generate a 30 mM stock. The compound stock was first pre-diluted in DMSO to 3, 0.34, 0.042 and 0.0083 mM intermediate concentrations and subsequently spotted using Echo550 liquid handler into an empty 384-well assay plate to achieve desired final concentration (e.g. 100, 33, 11, 3.7, 1.2, 0.41, 0.14, 0.046, 0.015, 0.0051, 0.0017 μM). DMSO was backfilled in the plate to achieve a final DMSO assay concentration of 0.37%. The plate was then sealed and stored at room temperature until required.
THP-1 cells were treated with PMA (Phorbol 12-myristate 13-acetate) (20 ng/ml) for 16-18 hours. On the day of the experiment the media was removed and adherent cells were detached with trypsin for 5 minutes. Cells were then harvested, washed with complete RPMI 1640, spun down, and resuspended in RPMI 1640 (containing 2% heat inactivated FBS, penicillin (100 units/ml) and streptomycin (100 μg/ml). The cells were plated in the 384-well assay plate containing the spotted compounds at a density of 50,000 cells/well (final assay volume 50 μl). Cells were incubated with compounds for 1 hour and then stimulated with gramicidin (5 μM) (Enzo) for 2 hours. Plates were then centrifuged at 340 g for 5 min. Cell free supernatant (40 μL) was collected using a 96-channel PlateMaster (Gilson) and the production of IL-1β was evaluated by HTRF (cisbio). The plates were incubated for 18 h at 4° C. and read using the preset HTRF program (donor emission at 620 nm, acceptor emission at 668 nm) of the SpectraMax i3x spectrophotometer (Molecular Devices, software SoftMax 6). A vehicle only control and a dose titration of CRID3 (100-0.0017 μM) were run concurrently with each experiment. […]

Data set [2] is described as follows: in vivo. Particulars: cynomolgus monkey. As for the experimental part: The safety of the treatment period is supported by 13-week GLP toxicology studies in rat and cynomolgus monkey. […] Safety margins for COMPOUND IA dosed at 25 mg b.i.d. based on 13-week GLP toxicology studies: […]

Broadly, the IC50 is the concentration at which inhibition is half-maximal. What is called NOAEL is the highest tested level that showed no adverse finding.

As for `CC(C)(O)c1ncc([S@](N)(=O)=NC(=O)Nc2c3c(cc4c2CCC4)CCC3)s1` [Compound IA, (R)-N′-((1,2,3,5,6,7-hexahydro-s-indacen-4-yl)carbamoyl)-2-(2-hydroxypropan-2-yl) thiazole-5-sulfonimidamide], in data set [1], the IC50 was in the range of 8 to 40 nM. In data set [2], the “Exposure multiples MONKEY NOAEL based on AUC0-24 h” value was found to be 49, the “Exposure multiples MONKEY NOAEL based on Cmax” value was found to be 66 and the NOAEL at 13 weeks amounted to 150 mg/kg/day. In data set [2] (25 mg), the “Exposure multiples MONKEY NOAEL based on AUC0-24 h” value was determined as 61 and the “Exposure multiples MONKEY NOAEL based on Cmax” value is listed as 82.
